In US7592160B2, “Processes for producing isomaltose and isomaltitol and use thereof” (Kabushiki Kaisha Hayashibara Seibutsu Kagaku Kenkyujo, priority 2001, dated 2009):

Experiments:
Design in all cases: key: −: no saccharide-transferred product was detected through transfer reaction to acceptor; ±: a saccharide-transferred product was detected in an amount less than one percent through transfer reaction to acceptor; +: a saccharide-transferred product was detected in an amount over one percent but less than 10% through transfer reaction to acceptor; ++: a saccharide-transferred product was detected in an amount over ten percent through transfer reaction to acceptor
[1] = test system: α-isomaltosylglucosaccharide-forming enzyme; test: Transfer-acceptor specificity, enzyme of C11 strain; assay type: biochemical, Bacillus globisporus C11 strain; conditions: acceptor 1.6%, PINE-DEX #100 donor 4%, one unit/g donor, 30° C., pH 6.0, 24 hours
Experimental: (§1) Using various saccharides, it was tested whether the saccharides were used as transferring-acceptors for α-isomaltosylglucosaccharide-forming enzyme. A solution of D-glucose, D-xylose, L-xylose, D-galactose, D-fructose, D-mannose, D-arabinose, D-fucose, D-psicose, L-sorbose, L-rhamnose, methyl-α-glucopyranoside, methyl-β-glucopyranoside, N-acetyl-glucosamine, sorbitol, α,α-trehalose, isomaltose, isomaltotriose, cellobiose, gentibiose, glycerol, maltitol, lactose, sucrose, α-cyclodextrin, β-cyclodextrin, γ-cyclodextrin, or L-ascorbic acid was prepared. To each solution with a saccharide concentration of 1.6% was added “PINE-DEX #100”, a partial starch hydrolyzate, as a saccharide donor, to give a concentration of 4%, and admixed with one unit/g saccharide donor, d.s.b., of either of purified specimens of α-isomaltosylglucosaccharide-forming enzyme from Bacillus globisporus C9 strain obtained by the method in Experiment 4-2, Bacillus globisporus C11 strain obtained by the method in Experiment 7-2, Bacillus globisporus N75 strain obtained by the method in Experiment 11-2, or Arthrobacter globiformis A19 strain obtained by the method in Experiment 15-2, and incubated at 30° C. and pH 6.0 for 24 hours, except that pH 8.4 was used for the enzyme from Arthrobacter globiformis A19 strain. The reaction mixtures of the post-enzymatic reactions were analyzed on gas chromatography (abbreviated as “GLC” hereinafter) for monosaccharides and disaccharides as acceptors, and on HPLC for trisaccharides as acceptors to confirm whether these saccharides could be used as the transfer acceptors of the above enzymes. In the case of performing GLC, the following apparatuses and conditions were used: GLC apparatus, “GC-16A” commercialized by Shimadzu Corporation, Tokyo, Japan; column, a stainless-steel column, 3 mm in diameter and 2 m in length, packed with 2% “SILICONE OV-17/CHROMOSOLV W”, commercialized by GL Sciences Inc., Tokyo, Japan; carrier gas, nitrogen gas at a flow rate of 40 ml/min under temperature conditions of increasing from 160° C. to 320° C. at an increasing temperature rate of 7.5° C./min; and detection, a hydrogen flame ionization detector. In the case of performing HPLC analysis, the following apparatuses and conditions were used: HPLC apparatus, “CCPD” commercialized by Tosoh Corporation, Tokyo, Japan; column, “ODS-AQ-303” commercialized by YMC Co., Ltd., Tokyo, Japan; eluent, water at a flow rate of 0.5 ml/min; and detection, a differential refractometer.

[2] = test system: α-isomaltosylglucosaccharide-forming enzyme; test: Transfer-acceptor specificity, enzyme of N75 strain; assay type: biochemical, Bacillus globisporus N75 strain; conditions: acceptor 1.6%, PINE-DEX #100 donor 4%, one unit/g donor, 30° C., pH 6.0, 24 hours
Experimental: as §1

[3] = test system: α-isomaltosylglucosaccharide-forming enzyme; test: Transfer-acceptor specificity, enzyme of C9 strain; assay type: biochemical, Bacillus globisporus C9 strain; conditions: acceptor 1.6%, PINE-DEX #100 donor 4%, one unit/g donor, 30° C., pH 6.0, 24 hours
Experimental: as §1

[4] = test system: α-isomaltosylglucosaccharide-forming enzyme; test: Transfer-acceptor specificity, enzyme of A19 strain; assay type: biochemical, Arthrobacter globiformis A19 strain; conditions: acceptor 1.6%, PINE-DEX #100 donor 4%, one unit/g donor, 30° C., pH 8.4, 24 hours
Experimental: as §1

SMILES	Product of transferring reaction, Enzyme of C11 strain [1]	Product of transferring reaction, Enzyme of N75 strain [2]	Product of transferring reaction, Enzyme of C9 strain [3]	Product of transferring reaction, Enzyme of A19 strain [4]
O=C[C@H](O)[C@@H](O)[C@@H](O)[C@H](O)CO [D-Galactose, D-galactose]	+ (a saccharide-transferred product was detected in an amount over one percent but less than 10% through transfer reaction to acceptor)	+ (a saccharide-transferred product was detected in an amount over one percent but less than 10% through transfer reaction to acceptor)	+ (a saccharide-transferred product was detected in an amount over one percent but less than 10% through transfer reaction to acceptor)	± (a saccharide-transferred product was detected in an amount less than one percent through transfer reaction to acceptor)
O=C[C@H](O)[C@@H](O)[C@H](O)CO [D-Xylose, D-xylose]	++ (a saccharide-transferred product was detected in an amount over ten percent through transfer reaction to acceptor)	++ (a saccharide-transferred product was detected in an amount over ten percent through transfer reaction to acceptor)	++ (a saccharide-transferred product was detected in an amount over ten percent through transfer reaction to acceptor)	+ (a saccharide-transferred product was detected in an amount over one percent but less than 10% through transfer reaction to acceptor)
O=C[C@@H](O)[C@H](O)[C@@H](O)CO [L-Xylose, L-xylose]	++ (a saccharide-transferred product was detected in an amount over ten percent through transfer reaction to acceptor)	++ (a saccharide-transferred product was detected in an amount over ten percent through transfer reaction to acceptor)	++ (a saccharide-transferred product was detected in an amount over ten percent through transfer reaction to acceptor)	+ (a saccharide-transferred product was detected in an amount over one percent but less than 10% through transfer reaction to acceptor)
O=C[C@@H](O)[C@@H](O)[C@H](O)[C@H](O)CO [D-Mannose, D-mannose]	−	−	−	± (a saccharide-transferred product was detected in an amount less than one percent through transfer reaction to acceptor)
C[C@H](O)[C@H](O)[C@@H](O)[C@@H](O)C=O [L-Rhamnose, L-rhamnose]	−	−	−	−
OC[C@@H](O)[C@@H](O)[C@H](O)[C@@H](O)CO [Sorbitol, sorbitol]	−	−	−	−
CC(=O)N[C@H]1C(O)O[C@H](CO)[C@@H](O)[C@@H]1O (stereo partly shown) [N-Acetylglucosamine, N-acetyl-glucosamine]	+ (a saccharide-transferred product was detected in an amount over one percent but less than 10% through transfer reaction to acceptor)	+ (a saccharide-transferred product was detected in an amount over one percent but less than 10% through transfer reaction to acceptor)	+ (a saccharide-transferred product was detected in an amount over one percent but less than 10% through transfer reaction to acceptor)	−
OC[C@H]1O[C@@H]2O[C@H]3[C@H](O)[C@@H](O)[C@@H](O[C@H]4[C@H](O)[C@@H](O)[C@@H](O[C@H]5[C@H](O)[C@@H](O)[C@@H](O[C@H]6[C@H](O)[C@@H](O)[C@@H](O[C@H]7[C@H](O)[C@@H](O)[C@@H](O[C@H]8[C@H](O)[C@@H](O)[C@@H](O[C@H]1[C@H](O)[C@H]2O)O[C@@H]8CO)O[C@@H]7CO)O[C@@H]6CO)O[C@@H]5CO)O[C@@H]4CO)O[C@@H]3CO [β-Cyclodextrin, β-cyclodextrin]	−	−	−	−
O=C[C@H](O)[C@@H](O)[C@H](O)[C@H](O)CO [D-Glucose, D-glucose]	+ (a saccharide-transferred product was detected in an amount over one percent but less than 10% through transfer reaction to acceptor)	+ (a saccharide-transferred product was detected in an amount over one percent but less than 10% through transfer reaction to acceptor)	+ (a saccharide-transferred product was detected in an amount over one percent but less than 10% through transfer reaction to acceptor)	+ (a saccharide-transferred product was detected in an amount over one percent but less than 10% through transfer reaction to acceptor)
O=C(CO)[C@@H](O)[C@H](O)[C@H](O)CO [D-Fructose, D-fructose]	+ (a saccharide-transferred product was detected in an amount over one percent but less than 10% through transfer reaction to acceptor)	+ (a saccharide-transferred product was detected in an amount over one percent but less than 10% through transfer reaction to acceptor)	+ (a saccharide-transferred product was detected in an amount over one percent but less than 10% through transfer reaction to acceptor)	+ (a saccharide-transferred product was detected in an amount over one percent but less than 10% through transfer reaction to acceptor)
